In patent publication US20190175560A1, “MEBENDAZOLE CANCER THERAPIES AND METHODS OF USE” (Shepherd Therapeutics, Inc., priority 2017, published 2019):

Experiments:
[1] = tested on: gastric cancer primary cells isolated from patient-derived xenograft model GA3155; assay: Ex vivo 3D assay, cell viability (Cell Titer Glo); assay type: cell-based; conditions: 168 h, 3D culture, seven days
Procedure: (§1) To evaluate the efficacy of MBZ in an additional model system, an ex vivo 3D assay using gastric cancer primary cells isolated from two patient-derived xenograft models (A. GA0033 and B. GA3155) was performed. Cells were seeded in 3D cultures and treated for seven days with MBZ at nine different doses in triplicate. Cell viability was determined using Cell Titer Glo. An IC50 was established using the PRISM software.

[2] = tested on: gastric cancer primary cells isolated from patient-derived xenograft model GA0033; assay: Ex vivo 3D assay, cell viability (Cell Titer Glo); assay type: cell-based; conditions: 168 h, 3D culture, seven days
Procedure: as §1

What does the source list for `COC(=O)Nc1nc2ccc(C(=O)c3ccccc3)cc2[nH]1` [MBZ, methyl N-(6-benzoyl-1H-benzimidazol-2-yl)carbamate]?
IC50 [1]: 0.76 µM; IC50 [2]: 0.74 µM
